What was measured:
Assay type in all cases: cell-based
[1] = tested on: activating transcription factor 3 (ATF3); test: ATF3 expression (RNAseq, real-time PCR) in MV4-11 cells
Procedure: (§1) After treatment, cells were recovered, washed once in PBS, and flash frozen as cell pellets. Cell pellets were sent to Canopy Biosciences for RNA extraction and library preparation and sequencing. RNA was extracted using the Qiagen RNeasy Mini Kit according to manufacturer's instructions. A modified protocol was used to preserve miRNA species. Total RNA Seq libraries were prepared using 200 ng of total RNA and the NEBNext Ultra II Directional Library prep kit. rRNA depletion was performed using an RNase-H based method (New England Biolabs, Ipswich, MA). MCL1 RNA levels in other cell lines were quantified by RNASeq using standard methods.
Libraries were multiplexed and sequenced using Illumina HiSeq. All gene counts were then imported into the R/Bioconductor package EdgeR and TMM normalization size factors were calculated to adjust for samples for differences in library size. Ribosomal genes and genes not expressed in the smallest group size minus one samples greater than one count-per-million were excluded from further analysis. […] Global perturbations in known Gene Ontology (GO) terms and KEGG pathways were detected using the R/Bioconductor package GAGE to test for changes in expression of the reported log 2 fold-changes reported by Limma in each term versus the background log 2 fold-changes of all genes found outside the respective term. […]

MV4-11 cells = test: RNASeq analysis of MV4-11 cells; details: MV4-11, 1 μM 5-azacytidine
Procedure: as §1
(§2) Libraries were multiplexed and sequenced using Illumina HiSeq. All gene counts were then imported into the R/Bioconductor package EdgeR and TMM normalization size factors were calculated to adjust for samples for differences in library size. Ribosomal genes and genes not expressed in the smallest group size minus one samples greater than one count-per-million were excluded from further analysis. Differential expression analysis was then performed to analyze for differences between conditions and the results were filtered for only those genes with Benjamini-Hochberg false-discovery rate adjusted p-values less than or equal to 0.05. Global perturbations in known Gene Ontology (GO) terms and KEGG pathways were detected using the R/Bioconductor package GAGE to test for changes in expression of the reported log 2 fold-changes reported by Limma in each term versus the background log 2 fold-changes of all genes found outside the respective term. The R/Bioconductor package heatmap and Pathview was used to display heatmaps or annotated KEGG graphs across groups of samples for each GO term or KEGG pathway (respectively) with a Benjamini-Hochberg false-discovery rate adjusted p-value less than or equal to 0.05. To find differentially expressed genes, the raw counts were variance stabilized with the R/Bioconductor package DESeq2.

[2] = tested on: stearoyl-CoA desaturase (SCD); test: SCD expression (RNAseq, real-time PCR) in MV4-11 cells
Procedure: as §1
as §2, with “The R/Bioconductor package heatmap and Pathview was used to display heatmaps or annotated KEGG graphs across groups of samples for each GO term or KEGG pathway (respectively) with a Benjamini-Hochberg false-discovery rate adjusted p-value less than or equal to 0.05. To find differentially expressed genes, the raw counts were variance stabilized with the R/Bioconductor package DESeq2.” left out
At this time, cells were recovered and RNA was extracted using Qiagen RNeasy kit according to manufacturer's instructions. […] Validated Taqman probes and Taqman Fast Advanced Master Mix was used with Viia 7 Real-Time PCR System (Invitrogen/ThermoFisher Scientific, Waltham, MA) to quantify transcripts of ATF3, SCD, and 18S mRNA.

Which results are given for `Nc1ncn([C@@H]2O[C@H](CO)[C@@H](O)[C@H]2O)c(=O)n1` [5-azacytidine, 4-amino-1-B-D-ribofuranosyl-1,3,5-triazin-2(1H)-one]?
ATF3 expression (real-time PCR) ([1]; MV4-11, 0.3 μM 5-azacytidine, 24 or 48 hours): not sufficient to induce ATF3 expression; ATF3 expression increase ([1]; RNAseq, MV4-11, 1 μM, 48 hours): two-fold; Mean logFC, Kegg pathway Antigen processing and presentation (MV4-11 cells; 24 h): −3.39; Mean logFC, Kegg pathway Biosynthesis of unsaturated fatty acids (MV4-11 cells; 24 h): −3.26; Mean logFC, Kegg pathway Carbon metabolism (MV4-11 cells; 24 h): −3.35; Mean logFC, Kegg pathway Cardiac muscle contraction (MV4-11 cells; 24 h): −2.61; Mean logFC, Kegg pathway Cell cycle (MV4-11 cells; 24 h): −5.75; Mean logFC, Kegg pathway Cellular senescence (MV4-11 cells; 24 h): −2.69; Mean logFC, Kegg pathway DNA replication (MV4-11 cells; 24 h): −4.45; Mean logFC, Kegg pathway Fatty acid elongation (MV4-11 cells; 24 h): −2.87; Mean logFC, Kegg pathway Fatty acid metabolism (MV4-11 cells; 24 h): −3.43; Mean logFC, Kegg pathway Lysasome (MV4-11 cells; 24 h): −2.82; Mean logFC, Kegg pathway Metabolic pathways (MV4-11 cells; 24 h): −5.79; Mean logFC, Kegg pathway Mismatch repair (MV4-11 cells; 24 h): −2.98; Mean logFC, Kegg pathway Necroptosis (MV4-11 cells; 24 h): −3.78; Mean logFC, Kegg pathway Oxidative phosphorylation (MV4-11 cells; 24 h): −7.32; Mean logFC, Kegg pathway Phagosome (MV4-11 cells; 24 h): −4.13; Mean logFC, Kegg pathway Proteasome (MV4-11 cells; 24 h): −4.41; Mean logFC, Kegg pathway Protein export (MV4-11 cells; 24 h): −3.19; Mean logFC, Kegg pathway Protein processing in endoplasmic reticulation (MV4-11 cells; 24 h): −4.96; Mean logFC, Kegg pathway RNA transport (MV4-11 cells; 24 h): −3.08; Mean logFC, Kegg pathway Regulation of actin cytoskeleton (MV4-11 cells; 24 h): −2.46; Mean logFC, Kegg pathway Ribosome (MV4-11 cells; 24 h): −10.50; Mean logFC, Kegg pathway Spliceasome (MV4-11 cells; 24 h): −4.10; Mean logFC, Kegg pathway Taste transduction (MV4-11 cells; 24 h): −2.44; Mean logFC, Kegg pathway Terpenoid backbone biosynthesis (MV4-11 cells; 24 h): −2.48; Mean logFC, Kegg pathway p53 signaling pathway (MV4-11 cells; 24 h): −2.42; differentially expressed genes (MV4-11 cells; 24 hours): 133; KEGG pathways regulated (MV4-11 cells; 48 hours): No significant differences; differentially expressed genes (MV4-11 cells; 48 hours): 226; SCD expression (real-time PCR) ([2]; MV4-11, 3 μM 5-azacytidine): decreased rapidly within 24 hours; SCD expression (real-time PCR) ([2]; MV4-11, low concentrations of 5-azacytidine, 24 hours): not affected; SCD expression decrease ([2]; RNAseq, MV4-11, 1 μM, 48 hours): 2.5 fold

— US12447171B2 (CELGENE QUANTICEL RESEARCH, INC., priority 2019, dated 2025)
